Data: publication PMC4607644 (Bioorganic & medicinal chemistry letters, 2015)
Where two headings read alike, the source gives them in different places.

How the values were obtained:
[1] = tested on: Staphylococcus aureus FabI (saFabI); settings: cited from earlier work
MRSA = settings: cited from earlier work
PET brain uptake = settings: baboon, i.v.
[2] = parameters: species or system mice; settings: mouse, in vivo
[3] = parameters: species or system baboon; settings: in vivo
InhA = settings: binds preferentially to InhA:NAD+ complex; cited from earlier work
[4] = in vivo, iv
M. tuberculosis = settings: cited from earlier work
[5] = Phase 1 and 2 metabolism; cited from earlier work

Compound: CCCCCCc1ccc(Oc2ccccc2C#N)c(O)c1 [PT119]
- residence time on saFabI [1]: ~ 12.5 h
- efficacy in a mouse model of MRSA infection (MRSA): demonstrates efficacy
- ability to penetrate the blood brain barrier (BBB) (PET brain uptake; images acquired for 90 min): able to penetrate the brain
- propensity to cross the BBB, qualitative comparison (PET brain uptake; qualitative): higher propensity to cross the BBB than PT70

Compound: CCCCCCc1ccc(Oc2ccccc2[11CH3])c(O)c1 [[^11C]PT70]
- concentration in the liver versus other peripheral organs [2]: much higher in the liver
- time of highest concentration of drug after injection [2]: 20 min
- elimination into the bladder ([3]; baboon): another large portion of the injected [11C]PT-70 was eliminated into the bladder
- clearance from the heart, lung and blood ([3]; iv): cleared rapidly

Compound: CCCCCCc1ccc(Oc2ccccc2C)c(O)c1 [PT70]
- residence time on the target (InhA): 24 min
- ability to penetrate the blood brain barrier (BBB) [4]: able to penetrate the brain
- antibacterial activity in a mouse model of tuberculosis infection (M. tuberculosis): shows antibacterial activity
- bacterial burden in the lungs (M. tuberculosis; infected mice, lungs): did not affect the bacterial burden
- bacterial load in the spleens (M. tuberculosis; infected mice, spleens): reduced the bacterial load

Compound: CCCCCCc1ccc(Oc2ccccc2)c(O)c1 [PT04]
- route of metabolism [5]: O-glucuronidation was a primary route for metabolism
